Patent publication US9187472B2 (AbbVie Inc., priority 2012, dated 2015)
pIC50: −log10 of the molar value.

Assays:
[1] = target: NAMPT (human, recombinant, C-terminally His-tagged) (Homo sapiens, UniProt P43490); assay: Time-Resolved Fluorescence Resonance Energy Transfer (TR-FRET) Binding Assay of NAMPT; details: without substrates; 6.8 nM NAMPT, 200 nM probe, 3 hours equilibration
Procedure, shortened: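 Compounds, diluted in half-log steps, are mixed with enzyme (6.8 nM), fluorescent probe (200 nM) and Tb-anti-His antibody (1 nM) in pH 7.5 HEPES buffer containing 10 mM MgCl2 and 1 mM DTT. Plates equilibrate 3 h at room temperature; normalized FRET ratios are fitted by four-parameter logistic regression for IC50.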

PC3 cells = assay: NAMPT Cell Proliferation Assay; assay type: cell-based; details: Homo sapiens, PC-3, 120 h, 5 days incubation, cell viability by Cell Titer Glo
Procedure, shortened: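 IC50 values derive from sigmoidal dose-response fits of percent inhibition of PC3 viability, measured by luminescence after 5 days of compound treatment. Cells (500/well, RPMI containing 10% heat-inactivated FBS) are allowed to attach overnight, and compounds are tested at 10-fold dilutions between 10 μM and 1×10^−5 μM.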

NAMPT = NAMPT (Homo sapiens, UniProt P43490); assay: TR-FRET Binding Assay of NAMPT with PRPP; details: with 200 μM PRPP and 2.5 mM ATP; 2 nM NAMPT, 2 nM probe, 16 hours equilibration
Sequence of NAMPT (P43490 whole entry): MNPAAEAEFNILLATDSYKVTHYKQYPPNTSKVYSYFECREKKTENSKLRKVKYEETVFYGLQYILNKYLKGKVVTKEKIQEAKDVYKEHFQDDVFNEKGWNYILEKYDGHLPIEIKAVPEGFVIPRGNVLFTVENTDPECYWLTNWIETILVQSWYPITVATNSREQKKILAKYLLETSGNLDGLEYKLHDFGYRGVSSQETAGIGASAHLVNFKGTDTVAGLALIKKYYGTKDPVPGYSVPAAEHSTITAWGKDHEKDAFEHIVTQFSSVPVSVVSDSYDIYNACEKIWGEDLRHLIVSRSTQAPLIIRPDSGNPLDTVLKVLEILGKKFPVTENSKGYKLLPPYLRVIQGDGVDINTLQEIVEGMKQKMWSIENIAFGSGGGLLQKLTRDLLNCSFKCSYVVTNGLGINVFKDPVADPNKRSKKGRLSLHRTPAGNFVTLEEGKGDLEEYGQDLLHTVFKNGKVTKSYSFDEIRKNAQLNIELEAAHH
Procedure, shortened: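 Compounds were mixed with 2 nM His-tagged NAMPT, 2 nM probe, 1 nM terbium anti-His antibody, 200 μM PRPP and 2.5 mM ATP in assay buffer with 2% DMSO, then left 16 hours to permit possible enzymatic processing of compounds before time-resolved FRET was measured.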

Sequence of NAMPT (human, recombinant, C-terminally His-tagged) (P43490 whole entry): as above

| Compound | pIC50 [1] | pIC50 (PC3 cells) | pIC50 (NAMPT) |
| --- | --- | --- | --- |
| O=C(NCc1ccn2ccnc2c1)c1ccc(O[C@@H]2CCN(C(=O)[C@H]3CCOC3)C2)cc1 [Example 494, N-(imidazo[1,2-a]pyridin-7-ylmethyl)-4-({(3R)-1-[(3S)-tetrahydrofuran-3-ylcarbonyl]pyrrolidin-3-yl}oxy)benzamide] | 5.12 | 5.91 | 9.15 |
| COc1cccc(C(=O)N2CCC(c3ccc(C(=O)NCc4ccn5ccnc5c4)cc3)C2)c1 (stereo not drawn) [Example 604, N-(imidazo[1,2-a]pyridin-7-ylmethyl)-4-[1-(3-methoxybenzoyl)pyrrolidin-3-yl]benzamide] | 6.82 | 8.00 | 9.07 |
| CC(C)(C)CC(=O)N1CC=C(c2ccc(C(=O)NCc3ccn4ccnc4c3)o2)CC1 [Example 749, 5-[1-(3,3-dimethylbutanoyl)-1,2,3,6-tetrahydropyridin-4-yl]-N-(imidazo[1,2-a]pyridin-7-ylmethyl)furan-2-carboxamide] | 6.41 | 7.11 | 9.10 |
| O=C(NCc1ccn2ccnc2c1)c1ccc(-c2cnn(CC3CCCCO3)c2)o1 (stereo not drawn) [Example 477, N-(imidazo[1,2-a]pyridin-7-ylmethyl)-5-[1-(tetrahydro-2H-pyran-2-ylmethyl)-1H-pyrazol-4-yl]furan-2-carboxamide] | 7.14 | 8.49 | 9.63 |
| Cn1ccc(C(=O)N2CCC(c3ccc(C(=O)NCc4ccn5ccnc5c4)cc3)C2)n1 (stereo not drawn) [Example 593, N-(imidazo[1,2-a]pyridin-7-ylmethyl)-4-{1-[(1-methyl-1H-pyrazol-3-yl)carbonyl]pyrrolidin-3-yl}benzamide] | 6.12 | 6.17 | 9.26 |
| O=C(NCc1ccc2nccn2c1)c1cnc(N(CC2CCOC2)C(=O)C2CCOCC2)s1 (stereo not drawn) [Example 140, N-(imidazo[1,2-a]pyridin-6-ylmethyl)-2-[(tetrahydrofuran-3-ylmethyl)(tetrahydro-2H-pyran-4-ylcarbonyl)amino]-1,3-thiazole-5-carboxamide] | 5.87 | 7.18 | 9.03 |
| O=C(NCc1ccc2nccn2c1)c1cnc(N(C[C@@H]2CCCO2)C(=O)C2CCOC2)s1 (stereo partly drawn) [Example 149, N-(imidazo[1,2-a]pyridin-6-ylmethyl)-2-{(tetrahydrofuran-3-ylcarbonyl)[(2S)-tetrahydrofuran-2-ylmethyl]amino}-1,3-thiazole-5-carboxamide] | < 5.00 | 7.58 | 8.31 |
| O=C(NCc1ccn2ccnc2c1)c1cnc(N(C[C@H]2CCCO2)C(=O)Cc2cscn2)s1 [Example 196, N-(imidazo[1,2-a]pyridin-7-ylmethyl)-2-{[(2R)-tetrahydrofuran-2-ylmethyl](1,3-thiazol-4-ylacetyl)amino}-1,3-thiazole-5-carboxamide] | 6.45 | 8.17 | 9.77 |
| O=C(NCc1ccn2ccnc2c1)c1ccc(C2CCN(C(=O)C3CCCC3)C2)cc1 (stereo not drawn) [Example 583, 4-[1-(cyclopentylcarbonyl)pyrrolidin-3-yl]-N-(imidazo[1,2-a]pyridin-7-ylmethyl)benzamide] | 5.95 | 6.72 | 9.10 |
| CS(=O)(=O)N1CC=C(c2ccc(C(=O)NCc3ccn4ccnc4c3)s2)CC1 [Example 242, N-(imidazo[1,2-a]pyridin-7-ylmethyl)-5-[1-(methylsulfonyl)-1,2,3,6-tetrahydropyridin-4-yl]thiophene-2-carboxamide] | 7.24 | 8.12 | 9.77 |
| O=C(NCc1ccn2ccnc2c1)c1ccc(C2CCN(C(=O)c3nccs3)C2)cc1 (stereo not drawn) [Example 613, N-(imidazo[1,2-a]pyridin-7-ylmethyl)-4-[1-(1,3-thiazol-2-ylcarbonyl)pyrrolidin-3-yl]benzamide] | 6.46 | 6.85 | 9.04 |

Further lines, results first:

| pIC50 [1] | pIC50 (PC3 cells) | pIC50 (NAMPT) | Compound |
| --- | --- | --- | --- |
| 7.24 | 7.19 | 9.21 | CC(C)CCC(=O)Nc1ccc(NC(=O)Nc2ccc3nccn3c2)cc1 [Example 47, N-{4-[(imidazo[1,2-a]pyridin-6-ylcarbamoyl)amino]phenyl}-4-methylpentanamide] |
| < 5.00 | < 5.00 | 8.51 | O=C(NCc1ccn2ccnc2c1)c1ccc(C(=O)NC[C@@H]2CCOC2)cc1 [Example 394, N-(imidazo[1,2-a]pyridin-7-ylmethyl)-N′-[(3S)-tetrahydrofuran-3-ylmethyl]benzene-1,4-dicarboxamide] |
| 6.03 | 6.74 | 9.42 | O=C(NCc1ccn2ccnc2c1)Nc1ccc(C2CN(C(=O)[C@H]3CCCO3)C2)cc1 [Example 458, 1-(imidazo[1,2-a]pyridin-7-ylmethyl)-3-(4-{1-[(2R)-tetrahydrofuran-2-ylcarbonyl]azetidin-3-yl}phenyl)urea] |
| 7.38 | 7.64 | 9.31 | CC(C)COC(=O)N1CCC(c2ccc(C(=O)NCc3ccn4ccnc4c3)s2)CC1 [Example 571, 2-methylpropyl 4-{5-[(imidazo[1,2-a]pyridin-7-ylmethyl)carbamoyl]thiophen-2-yl}piperidine-1-carboxylate] |
| 6.54 | 7.59 | 9.52 | CC(C)(C)OC(=O)N1CCC(c2ccc(C(=O)NCc3ccn4ccnc4c3)cc2)C1 (stereo not drawn) [Example 301, tert-butyl 3-{4-[(imidazo[1,2-a]pyridin-7-ylmethyl)carbamoyl]phenyl}pyrrolidine-1-carboxylate] |
| 6.29 | 6.96 | 9.77 | Cc1ccc(C(=O)N2CCC(c3ccc(C(=O)NCc4ccn5ccnc5c4)cc3)C2)cc1 (stereo not drawn) [Example 600, N-(imidazo[1,2-a]pyridin-7-ylmethyl)-4-[1-(4-methylbenzoyl)pyrrolidin-3-yl]benzamide] |
| < 5.00 | 5.90 | 9.06 | CC(C)C(=O)N1CC[C@@H](Oc2ccc(C(=O)NCc3ccn4ccnc4c3)cc2)C1 [Example 492, N-(imidazo[1,2-a]pyridin-7-ylmethyl)-4-{[(3R)-1-(2-methylpropanoyl)pyrrolidin-3-yl]oxy}benzamide] |
| 6.36 | 6.05 | 9.05 | O=C(Nc1ccc(C(=O)NCCCN2CCCC2=O)cc1)Nc1ccc2nccn2c1 [Example 21, 4-[(imidazo[1,2-a]pyridin-6-ylcarbamoyl)amino]-N-[3-(2-oxopyrrolidin-1-yl)propyl]benzamide] |
| 6.89 | 7.91 | 9.24 | CC(C)(O)Cn1cc(-c2ccc(C(=O)NCc3ccn4ccnc4c3)o2)cn1 [Example 483, 5-[1-(2-hydroxy-2-methylpropyl)-1H-pyrazol-4-yl]-N-(imidazo[1,2-a]pyridin-7-ylmethyl)furan-2-carboxamide] |
| 7.21 | 8.00 | 9.26 | Cc1ccsc1C(=O)N1CC(c2ccc(C(=O)NCc3ccn4ccnc4c3)cc2)C1 [Example 670, N-(imidazo[1,2-a]pyridin-7-ylmethyl)-4-{1-[(3-methylthiophen-2-yl)carbonyl]azetidin-3-yl}benzamide] |
| 6.09 | 6.18 | 9.33 | O=C(NCc1ccn2ccnc2c1)Nc1ccc(C2CCN(C(=O)CN3CCOCC3)C2)cc1 (stereo not drawn) [Example 392, 1-(imidazo[1,2-a]pyridin-7-ylmethyl)-3-{4-[1-(morpholin-4-ylacetyl)pyrrolidin-3-yl]phenyl}urea] |
